Data on twelve compounds can be found in US8552007B2, “Mesoionic pesticides” (E.I. du Pont de Nemours and Company, priority 2008, dated 2013).

Where a name gives a salt, the structure may show the parent alone. Read-outs that look alike come from different tables or passages of the source. Some results are limits rather than exact numbers.

In data set [1] the test system is cat flea (Ctenocephalides felis). The experiment in a line: whole plant or invertebrate. Format: in vivo. The conditions noted are these: 20 μL of 500 ppm solution on filter paper, adult fleas, 48 hours. On the procedure:
For evaluating control of the cat flea (Ctenocephalides felis), a test compound was solubilized in acetone:water (75:25) to a final test rate of 500 ppm. Then 20 μL of the 500 ppm solution was applied to filter paper in the bottom of a tube. The tube was allowed to dry for 3 hours. Then approximately 10 adult fleas were added to the tube and the tube was capped. The fleas were evaluated for mortality 48 hours later.

The subject of data set [2] is corn planthopper (Peregrinus maidis). Nature of the data set: whole plant or invertebrate. Format: in vivo. The conditions noted are these: 144 h. On the procedure: For evaluating control of corn planthopper (Peregrinus maidis) through contact and/or systemic means, the test unit consisted of a small open container with a 3-4-day-old maize plant (spike) inside. White sand was added to the top of the soil prior to application. Test compounds were formulated and sprayed at 250 and 50 ppm and replicated three times as described for Test A. After spraying, the test units were allowed to dry for 1 h before they were post-infested with ˜15-20 nymphs (18 to 21 day old) by sprinkling them onto the sand with a salt shaker. A black, screened cap was placed on the top of the cylinder. The test units were held for 6 days in a growth chamber at 22-24° C. and 50-70% relative humidity. Each test unit was then visually assessed for insect mortality.

Data set [3] relates to potato leafhopper (Empoasca fabae). The experiment in a line: whole plant or invertebrate. It counts as in vivo. The conditions noted are these: 144 h, Soleil bean plant, 6 days; for mortality at 50 ppm: sprayed at 50 ppm; for mortality at 250 ppm: sprayed at 250 ppm. On the procedure: For evaluating control of potato leafhopper (Empoasca fabae) through contact and/or systemic means, the test unit consisted of a small open container with a 5-6-day-old Soleil bean plant (primary leaves emerged) inside. White sand was added to the top of the soil and one of the primary leaves was excised prior to application.
Test compounds were formulated and sprayed at 250 and 50 ppm, and the tests were replicated three times as described for Test A. After spraying, the test units were allowed to dry for 1 h before they were post-infested with 5 potato leafhoppers (18-21-day-old adults). A black, screened cap was placed on the top of the cylinder. The test units were held for 6 days in a growth chamber at 24° C. and 70% relative humidity. Each test unit was then visually assessed for insect mortality.

The test system of data set [4] is cat flea (Ctenocephalides felis). The experiment in a line: whole plant or invertebrate. It counts as in vivo. The conditions noted are these: 30 ppm in bovine blood, adult fleas, 72 h. On the procedure: For evaluating control of the cat flea (Ctenocephalides felis), a test compound was solubilized in propylene glycol/glycerol formal (60:40) and then diluted in bovine blood to a final test rate of 30 ppm. The treated blood was placed in a tube with the bottom of the tube covered with a membrane. Approximately 10 adult cat fleas were allowed to feed through the membrane on the treated blood. The adult fleas were evaluated for mortality 72 h later.

Data set [5] deals with green peach aphid (Myzus persicae). Nature of the data set: whole plant or invertebrate. It counts as in vivo. The conditions noted are these: 144 h, sprayed at 250 ppm, radish plant, 6 days. The source says:
For evaluating control of green peach aphid (Myzus persicae) through contact and/or systemic means, the test unit consisted of a small open container with a 12-15-day-old radish plant inside. This was pre-infested by placing on a leaf of the test plant 30-40 aphids on a piece of leaf excised from a culture plant (cut-leaf method). The aphids moved onto the test plant as the leaf piece desiccated. After pre-infestation, the soil of the test unit was covered with a layer of sand.
Test compounds were formulated and sprayed at 250 ppm as described for Test A. The applications were replicated three times. After spraying of the formulated test compound, each test unit was allowed to dry for 1 h and then a black, screened cap was placed on top. The test units were held for 6 days in a growth chamber at 19-21° C. and 50-70% relative humidity. Each test unit was then visually assessed for insect mortality.

Setting [6] is: sprayed at 250 ppm, maize plant, 6 days, read-out: mortality.
[7] abbreviates: sprayed at 50 ppm, maize plant, 6 days, read-out: mortality.

Turning to `CC(C)c1c([O-])[n+](CC(F)(F)F)c2ccccn2c1=O` [Compound 115], in data set [1], the mortality (as a rule, the share of the test organisms that died) at 500 ppm was at least 50%. In data set [2] (setting [6]), the mortality at 250 ppm is at least 80%.

As to `O=c1c(C2CCc3ccccc32)c([O-])[n+](Cc2ccc(Cl)nc2)c2ccccn12` (stereo not drawn) [Compound 757], in data set [2], the mortality at 50 ppm was at least 80% and the mortality at 250 ppm was at least 80%.

In the case of `O=C(c1c([O-])[n+](CC(F)(F)F)c2ccccn2c1=O)C(F)(F)F` [Compound 711, 2-hydroxy-4-oxo-3-(2,2,2-trifluoroacetyl)-1-(2,2,2-trifluoroethyl)-4H-pyrido[1,2-a]-pyrimidinium inner salt], the mortality at 50 ppm in data set [3] is at least 80%.

For the compound `COc1cccc(-c2ncc(C[n+]3c([O-])c(I)c(=O)n4ccccc43)s2)c1` [Compound 613, 2-hydroxy-3-iodo-1-[[2-(3-methoxyphenyl)-5-thiazolyl]methyl]-4-oxo-4H-pyrido[1,2-a]-pyrimidinium inner salt], the mortality at 250 ppm in data set [3] and in data set [2] (setting [6]) was at least 80% each time. For the same compound, the mortality at 50 ppm in data set [2] (setting [7]) was at least 80%.

With `O=c1c(-c2ccncc2Cl)c([O-])[n+](CC(F)(F)F)c2ccccn12` [Compound 121], the mortality at 30 ppm in data set [4] was at least 50%. Also, the mortality at 500 ppm in data set [1] was at least 50%. Further, the mortality at 50 ppm in data set [2] (setting [7]) is at least 80%. Also, the mortality at 250 ppm in data set [2] (setting [6]) was at least 80%.

With `COc1cccc(-c2ccc(C[n+]3c([O-])c(-c4ccccc4)c(=O)n4ccccc43)cn2)c1` [Compound 599], the mortality at 30 ppm in data set [4] is at least 50%. Also, in data set [1], the mortality at 500 ppm is at least 50%. In data set [2] (setting [7]), the mortality at 50 ppm is at least 80%.

On to `O=c1cc([O-])[n+](CC(F)(F)F)c2ccccn12` (as salt: salt) [Compound 610, 2-hydroxy-4-oxo-1-(2,2,2-trifluoroethyl)-4H-pyrido[1,2-a]-pyrimidinium inner salt], for which the melting point (as a rule, the temperature, or range, at which the solid turns liquid) was 214 to 215 °C.

In the case of `O=c1c(-c2ccc(Cl)nc2)c([O-])[n+](CC(F)(F)F)c2ccccn12` [Compound 570], the mortality at 50 ppm in data set [3] and in data set [2] (setting [7]) was at least 80% throughout. For the same compound, the mortality at 250 ppm in data set [3] and in data set [2] (setting [6]) was at least 80% each time.

Consider `O=c1c(-c2ccc(F)nc2)c([O-])[n+](CC(F)(F)F)c2ccccn12` [Compound 571], for which the mortality at 250 ppm in data set [3] and in data set [2] (setting [6]) was at least 80% each time. Besides, the mortality at 50 ppm in data set [2] (setting [7]) is at least 80%.

Take `O=c1c(-c2ccccc2)c([O-])[n+](C2CCOCC2)c2ccccn12` [Compound 583]: the mortality at 250 ppm in data set [2] (setting [6]) was at least 80%.

Turning to `O=c1c(I)c([O-])[n+](CC(F)(F)F)c2ccccn12` [Compound 111], the mortality at 50 ppm in data set [3] and in data set [2] (setting [7]) was at least 80% each time. Moreover, the mortality at 250 ppm in data set [3], in data set [2] (setting [6]) and in data set [5] was at least 80% each time.

In turn, `COc1cccc(-c2ncc(C[n+]3c([O-])c(-c4ccccc4)c(=O)n4ccccc43)s2)c1` [Compound 520] gave a mortality at 500 ppm in data set [1] of at least 50%.
